Assay [1] deals with Tubulin (Sus scrofa, UniProt P02554+P02550). In words: Inhibition of porcine brain tubulin polymerization preincubated for 1 mins followed by GTP addition and measured for 60 mins at 1 min interval by fluorescence assay.
The subject of assay [2] is THP-1. As to the kind of experiment: Antiproliferative activity against human THP-1 cells assessed as reduction in cell viability incubated for 48 hrs by sulforhodamine assay. It is filed as functional, cell-based. The settings on record: THP-1, 48 h.
Assay [3] deals with HCT-116. In words: Antiproliferative activity against human HCT-116 cells assessed as reduction in cell viability incubated for 48 hrs by sulforhodamine assay. It is filed as functional, cell-based. The settings on record: HCT-116, 48 h.
Assay [4] concerns MCF7. As to the kind of experiment: Antiproliferative activity against human MCF7 cells assessed as reduction in cell viability incubated for 48 hrs by sulforhodamine assay. It is filed as functional, cell-based. The settings on record: MCF7, 48 h.
Assay [5] relates to T47D. In words: Antiproliferative activity against human T47D cells assessed as reduction in cell viability incubated for 48 hrs by sulforhodamine assay. It is filed as functional, cell-based.
The subject of assay [6] is A549. As to the kind of experiment: Antiproliferative activity against human A549 cells assessed as reduction in cell viability incubated for 48 hrs by sulforhodamine assay. The settings on record: A549, 48 h. It is filed as functional, cell-based.
Assay [7] concerns Human immunodeficiency virus 1. As to the kind of experiment: Antiviral activity against HIV-1 infected in human C8166 cells assessed as reduction in virus-induced cytopathic effect by MTT assay. It is filed as functional, organism-based. The settings on record: Human immunodeficiency virus 1, C8166.
For assay [8], the target named is T1, Tyrosinase (Agaricus bisporus, UniProt O42713).
T1 sequence (O42713 whole entry): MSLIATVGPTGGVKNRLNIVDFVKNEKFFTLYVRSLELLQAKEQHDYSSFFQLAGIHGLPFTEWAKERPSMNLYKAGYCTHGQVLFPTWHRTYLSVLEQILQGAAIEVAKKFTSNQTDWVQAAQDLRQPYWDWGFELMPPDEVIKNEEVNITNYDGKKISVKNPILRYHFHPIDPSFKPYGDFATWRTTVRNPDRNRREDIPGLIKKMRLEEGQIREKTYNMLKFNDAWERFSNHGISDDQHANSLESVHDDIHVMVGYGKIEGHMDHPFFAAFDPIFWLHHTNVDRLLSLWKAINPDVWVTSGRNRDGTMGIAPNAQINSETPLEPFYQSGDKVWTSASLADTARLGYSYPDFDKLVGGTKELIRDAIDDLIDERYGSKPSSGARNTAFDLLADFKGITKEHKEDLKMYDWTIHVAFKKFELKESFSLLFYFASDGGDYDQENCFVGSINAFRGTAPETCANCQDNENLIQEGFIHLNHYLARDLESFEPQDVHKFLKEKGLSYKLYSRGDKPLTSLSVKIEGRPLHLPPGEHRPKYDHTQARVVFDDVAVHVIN
As to the kind of experiment: Inhibition of Agaricus bisporus tyrosinase using L-DOPA as substrate incubated for 10 mins by spectrophotometric analysis.

Assay [9] can be described thus: Inhibition of Polyporus arcularius tyrosinase using L-DOPA as substrate incubated for 10 mins by spectrophotometric analysis.
The test system of assay [10] is Ehrlich. In words: Antitumor activity against mouse Ehrlich ascites carcinoma allografted in Swiss albino mouse assessed as tumor growth inhibition at 20 mg/kg, ip for 12 days. The settings on record: 288 h, time 12 day, read-out: TGI. It is filed as functional.
Assay [11] deals with T2, Amine oxidase [flavin-containing] A (Homo sapiens, UniProt P21397).
T2 sequence (P21397 whole entry): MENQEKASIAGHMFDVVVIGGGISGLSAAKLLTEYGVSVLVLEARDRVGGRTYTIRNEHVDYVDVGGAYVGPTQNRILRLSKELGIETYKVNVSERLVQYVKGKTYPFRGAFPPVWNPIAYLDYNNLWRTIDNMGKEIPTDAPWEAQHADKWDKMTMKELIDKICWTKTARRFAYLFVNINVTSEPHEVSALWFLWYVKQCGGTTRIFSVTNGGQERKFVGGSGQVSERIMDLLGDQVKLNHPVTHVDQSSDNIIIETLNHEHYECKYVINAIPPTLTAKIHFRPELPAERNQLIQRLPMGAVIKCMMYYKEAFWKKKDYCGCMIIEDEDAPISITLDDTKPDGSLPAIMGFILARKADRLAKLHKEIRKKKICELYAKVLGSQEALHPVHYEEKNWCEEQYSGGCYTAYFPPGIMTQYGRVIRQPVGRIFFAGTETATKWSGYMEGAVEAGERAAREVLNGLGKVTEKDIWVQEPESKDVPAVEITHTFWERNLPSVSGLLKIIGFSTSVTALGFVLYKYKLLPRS
As to the kind of experiment: Inhibition of recombinant human MAO-A assessed as inhibition of 4-hydroxyquinoline formation using kynuramine as substrate incubated for 20 mins by fluorescence assay.

For assay [12], the target named is T3, Amine oxidase [flavin-containing] B (Homo sapiens, UniProt P27338).
T3 sequence (P27338 whole entry): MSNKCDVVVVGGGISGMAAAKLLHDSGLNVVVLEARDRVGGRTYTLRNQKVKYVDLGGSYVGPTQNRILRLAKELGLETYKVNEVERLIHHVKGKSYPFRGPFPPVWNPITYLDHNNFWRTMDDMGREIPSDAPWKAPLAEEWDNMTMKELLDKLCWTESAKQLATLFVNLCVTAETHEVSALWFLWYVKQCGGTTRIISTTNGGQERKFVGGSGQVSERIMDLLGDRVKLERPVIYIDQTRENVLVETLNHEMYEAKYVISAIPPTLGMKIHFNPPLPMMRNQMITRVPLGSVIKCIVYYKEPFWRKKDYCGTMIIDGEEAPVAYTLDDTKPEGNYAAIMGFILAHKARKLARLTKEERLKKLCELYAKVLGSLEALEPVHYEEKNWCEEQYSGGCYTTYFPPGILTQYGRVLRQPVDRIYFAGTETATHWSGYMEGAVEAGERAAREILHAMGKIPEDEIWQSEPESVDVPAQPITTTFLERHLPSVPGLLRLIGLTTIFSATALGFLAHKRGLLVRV
As to the kind of experiment: Inhibition of recombinant human MAO-B assessed as inhibition of 4-hydroxyquinoline formation using kynuramine as substrate incubated for 20 mins by fluorescence assay.

Assay [13] is filed under the species Homo sapiens. As to the kind of experiment: Selectivity index, ratio of IC50 for inhibition of recombinant human MAO-A to IC50 for inhibition of recombinant human MAO-B.
For assay [14], the target named is Serine/threonine-protein kinase pim-1 (Homo sapiens, UniProt P11309). In words: Inhibition of PIM1 (unknown origin) using poly-Glu-Tyr (4:1) as substrate in presence of [gamma-33P-ATP] incubated for 2 hrs by radiometric kinase assay.
For assay [15], the system named is MES-SA. In words: Antiproliferative activity against human MES-SA cells assessed as reduction in cell viability incubated for 72 hrs by PrestoBlue cell viability assay. Format: functional, cell-based.
Assay [16] has as its system MES-SA/Dx5. In words: Antiproliferative activity against doxorubicin resistant human MES-SA/Dx5 cells assessed as reduction in cell viability incubated for 72 hrs by PrestoBlue cell viability assay. Format: functional, cell-based. Conditions: MES-SA/Dx5, 72 h.
Assay [17] is described as follows: Selectivity ratio of IC50 for antiproliferative activity against human MES-SA cells to IC50 for antiproliferative activity against doxorubicin resistant human MES-SA/Dx5 cells. It is filed as functional.
Assay [18] addresses Amyloid-beta precursor protein (Homo sapiens, UniProt P05067). In words: Binding affinity to human brain homogenate amyloid beta by radioligand competition binding assay. Format: tissue-based.

pEC50, pIC50, pKi: −log10 of the molar value.

Amyloid-beta precursor protein, sequence (P05067 whole entry): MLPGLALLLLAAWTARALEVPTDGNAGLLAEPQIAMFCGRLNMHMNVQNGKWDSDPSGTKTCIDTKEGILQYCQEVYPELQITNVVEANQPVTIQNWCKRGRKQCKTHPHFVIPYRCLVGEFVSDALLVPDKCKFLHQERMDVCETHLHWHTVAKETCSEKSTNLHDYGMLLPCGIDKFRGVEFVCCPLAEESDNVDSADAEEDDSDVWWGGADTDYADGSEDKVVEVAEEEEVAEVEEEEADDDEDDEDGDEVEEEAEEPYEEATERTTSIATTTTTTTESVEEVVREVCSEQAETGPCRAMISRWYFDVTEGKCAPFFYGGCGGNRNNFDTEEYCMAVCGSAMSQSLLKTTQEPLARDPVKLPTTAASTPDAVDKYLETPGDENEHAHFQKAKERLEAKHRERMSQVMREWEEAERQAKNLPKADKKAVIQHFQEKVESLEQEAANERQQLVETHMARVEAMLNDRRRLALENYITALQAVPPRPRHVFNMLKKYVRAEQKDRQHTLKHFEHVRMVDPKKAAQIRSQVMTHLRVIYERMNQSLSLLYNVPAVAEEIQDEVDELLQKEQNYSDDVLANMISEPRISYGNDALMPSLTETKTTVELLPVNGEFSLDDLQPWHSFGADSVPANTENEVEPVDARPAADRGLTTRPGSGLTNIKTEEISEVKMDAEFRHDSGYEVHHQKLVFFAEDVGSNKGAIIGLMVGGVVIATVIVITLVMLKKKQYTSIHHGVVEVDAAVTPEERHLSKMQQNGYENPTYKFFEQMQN
Serine/threonine-protein kinase pim-1, sequence (P11309 whole entry): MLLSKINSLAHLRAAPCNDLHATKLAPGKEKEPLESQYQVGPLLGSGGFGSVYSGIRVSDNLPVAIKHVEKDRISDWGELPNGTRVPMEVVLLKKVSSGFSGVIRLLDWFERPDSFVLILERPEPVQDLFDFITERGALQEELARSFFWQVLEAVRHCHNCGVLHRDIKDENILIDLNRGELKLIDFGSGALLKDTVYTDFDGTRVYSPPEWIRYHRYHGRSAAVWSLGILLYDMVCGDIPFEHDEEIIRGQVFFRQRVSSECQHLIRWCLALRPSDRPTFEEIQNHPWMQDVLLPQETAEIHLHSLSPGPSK

In turn, `COc1cc(C2/C(=C/c3ccc([N+](=O)[O-])cc3)C(=O)c3cc(OC)c(OC)c(OC)c32)cc(OC)c1OC` (stereo not drawn) returned a half-maximal inhibitory concentration (IC50) in assay [1] of 1.5 µM. Besides, the pIC50 in assay [2], in assay [3], in [4], in assay [5] and in assay [6] was 5.40 throughout. `O=C1/C(=C/c2ccc(O)c(O)c2)Oc2c1ccc(O)c2O`: in assay [7], the pEC50 was 4.92. Regarding `O=C1/C(=C/c2ccc(O)cc2O)Oc2cccc(O)c21`, the pIC50 is 5.40 in assay [8] and 4.47 in assay [9]. Take `COc1cc(C2/C(=C/c3ccc4c(c3)OCO4)C(=O)c3cc(OC)c(OC)c(OC)c32)cc(OC)c1OC` (stereo not drawn): in [10], the inhibition in vivo at 20 mg/kg worked out at 45.5%. As for `COc1ccc2c(c1)O/C(=C\n1ccc3ccccc31)C2=O`, the pIC50 in assay [11] is below 4.00; in [12] it was 8.59. The Ratio IC50 in [13] was above 38000.

As to `COc1cc(O)c2c(c1)O/C(=C\c1c[nH]c3nc(Cl)ccc13)C2=O`, the pIC50 in assay [14] was 5.06. Take `COc1cc(OC)c2c(c1)O/C(=C\c1ccc(N(C)C)cc1)C2=O`: the negative-log IC50 (pIC50) is 4.22 in assay [15] and 4.82 in [16]. Further, in assay [17], the “Ratio IC50” value was found to be 4. Regarding `O=C1/C(=C(\O)c2cccc(Br)c2)Sc2ccccc21`, the results for the pIC50 in assay [11] and in assay [12] were 4.20 and 6.46, respectively.

As for `CN(C)c1ccc(/C=C2\Cc3cc(I)ccc3C2=O)cc1`, in assay [18], the negative logarithm of the Ki (pKi) is 7.00. Take `CN(C)c1ccc(/C=C2\Nc3ccc(I)cc3C2=O)cc1`: the pKi in [18] is 6.62. As for `CCCCc1ccc(/C=C2\Nc3cc(OC)cc(OC)c3C2=O)cc1`, the “Ratio IC50” value in [17] is 4.8.

For the compound `O=C1/C(=C/c2cc(-c3ccncc3)[nH]n2)Oc2cc(O)cc(O)c21`, in assay [14], the pIC50 is 4.74.

The values above are taken from ChEMBL document CHEMBL5236572, “Bioactive Aurones, Indanones, and Other Hemiindigoid Scaffolds: Medicinal Chemistry and Photopharmacology Perspectives” (J Med Chem, 2022).
